1 molecule from patent US11612583B2, “Disease modifying methods for treating neurodegenerative diseases using nootropic agents” (priority 2018, dated 2023) can be followed below.

“Also recorded” adds a separate entry of the source.

In data set [1] the test system is PINK1-KO rats. As to the kind of experiment: Tapered beam balance test (coordination and balance) in PINK1-KO rats. The class given is in vivo, rat. To be noted: intraperitoneal Forskolin 1.6 mg/kg with or without Noopept 0.05 μg/kg; 10 days; post vs pre-treatment; FIG. 10. The procedure: All experiments involving mice and rats were performed in accord with ARRIVE (Animal Research: Reporting of In Vivo Experiments) guidelines. Wild-type C57BL/6 and PINK1 knockout mice (B6.129S4-Pink1^tm1Slm/J), wild-type (Long Evans rats) and PINK1 knockout (LEH-PINK1^tm1sage.Park6) rats (SAGE labs through Horizon Discovery) were handled humanely and appropriately per the ARRIVE guidelines. All mice were housed at the Laboratory of Animal Resources (University of Nevada, Reno) in cages containing sufficient bedding, food (pellets), water, with sufficient social, nutritional and “enriched” environments, and maintained in HVAC-pressurized/sterile environment and in 12:12 hr light/dark cycles.
Wild-type (PINK1+/+) or PINK1 knockout (PINK1−/−) rats were treated with intraperitoneal injections of DMSO control or of Forskolin (1.6 mg/kg body weight) once every 2 days for two doses followed by co-administration with Noopept (0.05 μg/kg) for three more doses (once every two days) for up to a total treatment time of 10 days. […] In addition, muscle coordination and balance were assessed by subjecting the rats to cross a 1-meter, tapered beam balance (2 cm width) for up to three trials per animal. […]

For another data set, the system named is Protein Kinase A (PKA). As to the kind of experiment: PKA activity in cortex lysates after intranasal administration (ELISA-based colorimetric kit). To be noted: for blood brain barrier crossing: intranasal formulation, inferred from increased cortical PKA activity within 24 hrs; for PKA activity in the cortex: intranasal, 6 μl per nostril, 24 hr, 2.5 and 10 μM in cerebrospinal fluid, vs 0 μM, FIG. 14. The class given is in vivo, wild-type Long Evans Hooded rats. The procedure:
PKA activity was measured in cortex of wild-type Long Evans Hooded rats by determining the level of PKA-mediated substrate phosphorylation by using an ELISA-based colorimetric PKA activity kit per manufacturer's recommendations (Enzo Life Sciences; ADI-EKS-390A) with the following minor modifications. To determine PKA-specific activity, lysates form the cortex were treated with H89, a pharmacological inhibitor of PKA at 10 μM for 5 min, and the H89-resistant kinase activity was subtracted from total kinase activity of untreated tissue lysates.
Combine 1.68 grams K2HPO4 ([…]), 5.28 grams KH2PO4 ([…]), and 81.8 grams NaCl ([…]). Add distilled H2O up to 1 L total volume. Autoclave and sterilize solution. Adjust the pH of the solution to 7.4 using a pH meter. Add 1 gram sodium benzoate (0.1%) or propyl benzoic acid. Reconstitute up to 2 mg of lyophilized, sterile, pharmaceutical grade water-soluble Forskolin analogue, for example water soluble analogue NKH477, in 1 mL of PBS by using a 1 mL syringe. Transfer the reconstituted Forskolin onto the receiving chamber of an intranasal atomizer (NAD nasal) prior to intranasal delivery.
(*:p<0.05 vs. 0 μM, One-Way ANOVA, Tukey's test, N=3 rats per group).
(In general: ELISA stands for enzyme-linked immunosorbent assay.)

Data set [2] deals with PINK1-KO rats. As to the kind of experiment: Baseline oxygen consumption rates in midbrain slices of PINK1-KO rats. The class given is in vivo, rat. To be noted: intraperitoneal Forskolin 1.6 mg/kg with or without Noopept 0.05 μg/kg; FIG. 12. The procedure: Wild-type (PINK1+/+) or PINK1 knockout (PINK1−/−) rats were treated with intraperitoneal injections of DMSO control or of Forskolin (1.6 mg/kg body weight) once every 2 days for two doses followed by co-administration with Noopept (0.05 μg/kg) for three more doses (once every two days) for up to a total treatment time of 10 days. At the end of each treatment, a battery of motor tests were performed in vehicle-treated or WT and PINK1-KO rats treated with compounds to analyze for muscle strength in hind legs by using a grip strength analyzer. In addition, muscle coordination and balance were assessed by subjecting the rats to cross a 1-meter, tapered beam balance (2 cm width) for up to three trials per animal. Upon completing the behavioral tests, the rats were then transcardially perfused with phosphate buffered saline, and the brains were extracted, midbrain slices were generated by using a vibratome (brain slicer) at room temperature and maintained in artificial cerebral spinal fluid. The oxygen consumption rates were then measured by using an XF24^e Metabolic Analyzer to measure energy production in the brain (oxidative phosphorylation) as described in Example 1 but with the following modifications. […] The brain slices were analyzed for baseline respiration for five cycles with each cycle consisting of 3 min. of mixing, 3 min. of waiting and 2 min. of measuring OCRs.

Data set [3] deals with primary cortical neurons treated with rotenone. As to the kind of experiment: Dendrite length analysis (MAP2B immunostaining). The class given is cell-based, mouse. To be noted: after rotenone 65 nM; Forskolin/NKH477 6.5 μM-8.5 μM or 250 μM dbt-cAMP; FIG. 5.
Data set [4] has the same test system. As to the kind of experiment: Oxygen consumption rates (XF24e Extracellular Flux Analyzer) in rotenone-treated primary cortical neurons. The data set is classed as cell-based, mouse. How it is done: Rotenone (1.26 mM stock, Sigma, Cat #R8875) was freshly prepared in water prior to each use. Stocks of rotenone were maintained in the dark at −20° C. for up to 6 months. Rotenone was used at 65 μM for neuroblastoma cells and at 65 nM for primary cortical neurons for 4-6 hours to induce oxidative and autophagic stress.
Forskolin (Coleus forskohlii, >98% HPLC, Sigma Aldrich) was prepared in DMSO as 5 mg/ml stocks (stable for up to 6 months if kept in the dark and stored in −20° C. until ready to use). On the day of the experiment, the forskolin aliquot was thawed and cells were treated once with forskolin at a concentration of 1 to up to 10 μM of forskolin in complete media for treating primary cortical neurons or for intraperitoneal administration of PINK1 knockout mice or PINK1 knockout rats.
Rotenone-treated primary neurons were then exposed to 250 μM dibutyryl cyclic AMP (dbt-cAMP) or with the parental or water-soluble form (NKH477) of Forskolin (6.5 μM-8.5 μM, 24 hrs). The basal oxygen consumption rates (OCRs), a proxy for mitochondrial function, were analyzed by using an XF24^e Extracellular Flux Analyzer (Agilent Technologies). The maximal oxygen consumption rates (OCRs), a proxy for maximal buffering capacity of mitochondrial function, were also analyzed by using an XF24^e Extracellular Flux Analyzer in primary cortical neurons treated with 1 μM FCCP, an ionophore that acts as a mitochondrial uncoupler.

Turning to `C=C[C@@]1(C)CC(=O)[C@]2(O)[C@@]3(C)[C@@H](O)CCC(C)(C)[C@@H]3[C@H](O)[C@H](OC(C)=O)[C@@]2(C)O1` [Forskolin], the “coordination and balance (motor score, falls and slips per crossing)” value with PINK1-KO rats [1] was “can reverse the loss of coordination and balance; also recorded: can reverse the loss of balance and coordination”. For the same molecule, in the data set on Protein Kinase A (PKA), the “blood brain barrier crossing” value is “can efficiently cross the blood brain barrier; also recorded: efficiently crosses the blood brain barrier” and the “PKA activity in the cortex” value is “significantly increases PKA activity”. Also, in the data set with Protein Kinase A (PKA) (listed as forskolin), the “blood brain barrier crossing” value is “crosses the blood brain barrier efficiently” and the “PKA activity in the cortex” value is “enhances neuroprotective PKA activity”. In addition, the “basal respiration / oxidative phosphorylation in the midbrain (baseline OCRs)” value in the data set with PINK1-KO rats [2] is reported as “sufficient to reverse the loss in oxidative phosphorylation; also recorded: significantly restored basal respiration”. The “dendrite arbors (total dendrite length per neuron)” value in data set [3] is recorded as “reversed the loss of dendrites; also recorded: completely blocked; also recorded: significantly restored”. In data set [4] (after rotenone 65 nM 24 hours, 6.5 μM-8.5 μM, 24 hrs, 1 μM FCCP, FIG. 2), the “spare respiratory capacity (Maximal OCRs-Baseline OCRs)” value is “completely restored; also recorded: significantly restored”. Further, the “baseline mitochondrial respiration (basal OCRs)” value in data set [4] (after rotenone 65 nM 24 hours, Forskolin or NKH477 6.5 μM-8.5 μM, 24 hrs, FIG. 1) is “partially or completely restored; also recorded: significantly restored”. Moreover, the “protection against rotenone-mediated neurodegeneration” value in data set [4] (concentrations of Forskolin greater than 12.5 μM) is recorded as “did not confer significant protection”. The “concentration of maximal effects on protection against loss of neuronal metabolism (oxidative phosphorylation and glycolysis)” value in data set [4] (rotenone-treated primary neurons, bimodal) is “about 10 μM”.
